The results in this text go back to ChEMBL document CHEMBL5518225, “Mechanism-Based Macrocyclic Inhibitors of Serine Proteases” (J Med Chem, 2024).

Data set [1] in a line: Metabolic stability in mouse plasma assessed as compound remaining measured at 2 hrs. The note with it: read-out: Stability. The class given is ADME, cell-free.
Data set [2] can be described thus: Metabolic stability in human plasma assessed as compound remaining measured at 2 hrs. It is filed as ADME, cell-free. The note with it: read-out: Stability.
A short description of data set [3]: Metabolic stability in mouse plasma assessed as half life. It is filed as ADME, cell-free.
A short description of data set [4]: Metabolic stability in human plasma assessed as half life. It is filed as ADME, cell-free.
Data set [5] deals with Transmembrane protease serine 2 (Homo sapiens, UniProt O15393). Put plainly: Inhibition of N-terminal 6His-tagged human recombinant TMPRSS2 (106 to 492 residues) using Boc-QAR-AMC as substrate preincubated for 30 mins followed by substrate addition and measured by fluorescence based analysis.
In a further data set the target is Serine protease hepsin (Homo sapiens, UniProt P05981). As to the kind of experiment: Inhibition of C-terminal 10-His tagged human recombinant hepsin (Arg45 to Leu417 residues) using Boc-QAR-AMC as substrate preincubated for 30 mins followed by substrate addition and measured by fluorescence based analysis.
Data set [6] can be described thus: Half life in male CD-1 mouse at 13 to 20 mg/kg, ip administered as single dose and measured upto 24 hrs by LC-MS/MS analysis. Particulars: in vivo, dose 13-20 mg/kg; call rule not given here. The class given is ADME, organism-based.
A short description of data set [7]: Drug uptake in male CD-1 mouse at 13 to 20 mg/kg, ip administered as single dose and measured upto 24 hrs by LC-MS/MS analysis. Particulars: in vivo, dose 13-20 mg/kg. The class given is ADME, organism-based.
Data set [8] addresses Coagulation factor X, Homo sapiens (UniProt P00742). Put plainly: Inhibition of factor Xa (unknown origin) using Bz-lle-Glu-Gly-Arg-pNA as chromogenic substrate preincubated for 30 mins followed by substrate addition by absorbance based analysis.
Data set [9] in a line: Metabolic stability in mouse plasma assessed as drug degradation measured after 2 hrs. The class given is ADME, cell-free.
Data set [10] deals with T1, Hepatocyte growth factor activator serine protease (Homo sapiens, UniProt Q04756).
T1 sequence (Q04756 whole entry): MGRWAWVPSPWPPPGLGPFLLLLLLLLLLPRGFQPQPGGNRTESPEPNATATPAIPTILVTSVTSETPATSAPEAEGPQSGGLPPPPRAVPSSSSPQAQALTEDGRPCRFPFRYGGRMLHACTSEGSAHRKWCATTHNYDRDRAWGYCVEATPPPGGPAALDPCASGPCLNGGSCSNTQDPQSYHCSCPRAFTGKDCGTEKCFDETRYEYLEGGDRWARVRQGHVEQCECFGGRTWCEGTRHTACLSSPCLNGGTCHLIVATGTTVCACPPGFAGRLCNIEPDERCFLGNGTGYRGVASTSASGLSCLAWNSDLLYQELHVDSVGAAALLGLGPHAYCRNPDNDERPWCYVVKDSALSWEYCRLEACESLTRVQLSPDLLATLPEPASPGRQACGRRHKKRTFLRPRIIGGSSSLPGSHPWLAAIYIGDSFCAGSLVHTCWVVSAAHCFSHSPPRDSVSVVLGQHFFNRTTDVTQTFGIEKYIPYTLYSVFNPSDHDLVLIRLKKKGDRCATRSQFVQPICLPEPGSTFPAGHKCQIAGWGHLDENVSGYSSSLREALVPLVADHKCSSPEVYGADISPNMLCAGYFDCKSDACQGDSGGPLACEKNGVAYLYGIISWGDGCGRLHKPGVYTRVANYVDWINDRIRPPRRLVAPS
As to the kind of experiment: Inhibition of C-terminal 10-His tagged human recombinant HGFA (Gln36 to Ser655 residues) using Boc-QLR-AMC as substrate preincubated for 30 mins followed by substrate addition and measured by fluorescence based analysis.

In data set [11] the target is T2, Suppressor of tumorigenicity 14 protein (Homo sapiens, UniProt Q9Y5Y6).
T2 sequence (Q9Y5Y6 whole entry): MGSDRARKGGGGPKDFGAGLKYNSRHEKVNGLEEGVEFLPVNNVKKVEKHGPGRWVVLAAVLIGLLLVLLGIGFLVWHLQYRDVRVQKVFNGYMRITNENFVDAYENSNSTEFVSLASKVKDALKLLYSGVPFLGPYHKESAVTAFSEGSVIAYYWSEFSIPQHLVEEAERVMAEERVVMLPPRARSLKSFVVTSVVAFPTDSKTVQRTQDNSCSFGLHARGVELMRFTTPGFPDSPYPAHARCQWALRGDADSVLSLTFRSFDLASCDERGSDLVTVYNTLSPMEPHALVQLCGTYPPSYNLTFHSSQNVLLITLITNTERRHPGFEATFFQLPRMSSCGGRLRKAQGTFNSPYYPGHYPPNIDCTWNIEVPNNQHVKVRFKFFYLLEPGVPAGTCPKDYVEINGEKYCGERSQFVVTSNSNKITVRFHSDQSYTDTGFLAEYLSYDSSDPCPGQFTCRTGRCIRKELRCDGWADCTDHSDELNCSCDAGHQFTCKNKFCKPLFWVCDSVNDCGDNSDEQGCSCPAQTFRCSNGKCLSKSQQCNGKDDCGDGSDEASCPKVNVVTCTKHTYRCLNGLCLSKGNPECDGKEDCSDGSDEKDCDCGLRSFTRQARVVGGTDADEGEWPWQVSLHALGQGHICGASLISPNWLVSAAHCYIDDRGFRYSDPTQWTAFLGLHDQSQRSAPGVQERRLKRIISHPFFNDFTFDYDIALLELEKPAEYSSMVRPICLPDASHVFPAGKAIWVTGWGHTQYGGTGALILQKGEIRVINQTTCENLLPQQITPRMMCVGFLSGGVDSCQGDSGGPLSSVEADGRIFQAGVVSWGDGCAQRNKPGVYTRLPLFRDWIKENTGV
Put plainly: Inhibition of N-terminal Met/6His tagged human recombinant matriptase catalytic domain (Gly596 to Val855 residues) using Boc-QAR-AMC as substrate preincubated for 30 mins followed by substrate addition and measured by fluorescence based analysis.

The species named for data set [12] is Homo sapiens. As to the kind of experiment: Selectivity index, ratio of IC50 for inhibition of C-terminal 10-His tagged human recombinant HGFA (Gln36 to Ser655 residues) to IC50 for inhibition of N-terminal 6His-tagged human recombinant TMPRSS2 (106 to 492 residues).
The species named for data set [13] is Homo sapiens. As to the kind of experiment: Selectivity index, ratio of IC50 for inhibition of N-terminal Met/6His tagged human recombinant matriptase catalytic domain (Gly596 to Val855 residues) to IC50 for inhibition of N-terminal 6His-tagged human recombinant TMPRSS2 (106 to 492 residues).
For data set [14], the species on record is Homo sapiens. Put plainly: Selectivity index, ratio of IC50 for inhibition of C-terminal 10-His tagged human recombinant hepsin (Arg45 to Leu417 residues) to IC50 for inhibition of N-terminal 6His-tagged human recombinant TMPRSS2 (106 to 492 residues).
A short description of data set [15]: Elimination half life in male CD-1 mouse at 13 to 20 mg/kg, ip administered as single dose and measured upto 24 hrs by LC-MS/MS analysis. It is filed as ADME, organism-based. The note with it: in vivo, dose 13-20 mg/kg.

As usually defined, the IC50 is the concentration that gives 50% inhibition.

Take `CC(=O)N[C@H]1CCCCn2cc(nn2)C[C@H](C(=O)N[C@@H](CCCNC(=N)N)C(=O)c2nc3ccccc3s2)NC(=O)[C@H](CC(C)C)NC1=O`: the remaining at 2 h amounted to 82% in data set [1] and 83% in data set [2]. Also, the t1/2 in data set [3] and in data set [4] was over 4.82 h in each case.

Take `CC(=O)N[C@H]1Cc2cccc(c2)Oc2ccc(cc2)C[C@@H](C(=O)N[C@@H](CCCNC(=N)N)C(=O)c2nc3ccccc3s2)NC(=O)[C@H](CC(C)C)NC1=O`: the IC50 in data set [5] was 15 nM.

Regarding `CC(=O)N[C@H]1Cc2cn(nn2)CCCC[C@H](C(=O)N[C@@H](CCCNC(=N)N)C(=O)c2nc3ccccc3s2)NC(=O)[C@H](CC(C)C)NC1=O`, the remaining at 2 h in [1] came out at 83%; in data set [2], 85%. The t1/2 in data set [3] and in [4] was over 4.82 h each time.

As to `CC(=O)N[C@H]1Cc2ccc(cc2)OCCCC[C@@H](C(=O)N[C@@H](CCCNC(=N)N)C(=O)c2nc3ccccc3s2)NC(=O)[C@H](Cc2ccccc2)NC1=O`, in data set [5], the IC50 amounted to 16 nM. Besides, the remaining at 2 h stood at 80% in [1] and 65% in data set [2]. Moreover, the values for the t1/2 in data set [3] and in [4] were over 4.82 h and 3.15 h, respectively.

For `CC(=O)N[C@H]1Cc2ccc(cc2)Oc2cccc(c2)C[C@@H](C(=O)N[C@@H](CCCNC(=N)N)C(=O)c2nc3ccccc3s2)NC(=O)[C@H](CC(C)C)NC1=O`, the IC50 at Serine protease hepsin came to 0.2 nM; in [8], 13000 nM. In addition, the t1/2 in data set [6] came out at 4.5 h. The Drug uptake entry in [7] was “Active”.

As to `CC(=O)N[C@H]1Cc2ccc(cc2)OC/C=C\CNC(=O)CC[C@@H](C(=O)N[C@@H](CCCNC(=N)N)C(=O)c2nc3ccccc3s2)NC(=O)[C@H](CC(C)C)NC1=O`, the figures for the remaining at 2 h in data set [1] and in data set [2] were 66% and 76%, respectively. In addition, the t1/2 in data set [3] was 3.93 h; in data set [4], over 4.82 h. Besides, the IC50 in data set [8] is over 20000 nM.

As to `CC(=O)N[C@H]1Cc2ccc(cc2)OCCCC[C@@H](C(=O)N[C@@H](CCCNC(=N)N)C(=O)c2nc3ccccc3s2)NC(=O)[C@H](CC(C)C)NC1=O`, the figures for the remaining at 2 h in data set [1] and in data set [2] were 98% and 79%, respectively. The t1/2 in [3] and in data set [4] was over 4.82 h in each case. Further, the Stability result in [9] is recorded as “Stable”.

For `CC(=O)N[C@H]1C/C=C/COc2ccc(cc2)C[C@@H](C(=O)N[C@@H](CCCNC(=N)N)C(=O)c2nc3ccccc3s2)NC(=O)[C@H](CC(C)C)NC1=O`, the IC50 in data set [5] is 14 nM; in data set [10] it was over 20000 nM; in data set [11], 14 nM; at Serine protease hepsin, 20 nM; in data set [8] it was over 20000 nM. Besides, the remaining at 2 h is 84% in data set [1] and 78% in [2]. Moreover, the values for the t1/2 in [3] and in [4] were over 4.82 h and 4.77 h, respectively.

As for `CC(=O)N[C@H]1Cc2ccc(cc2)OCCCC[C@@H](C(=O)N[C@@H](CCCNC(=N)N)C(=O)c2nc3ccccc3s2)NC(=O)[C@H](Cc2c[nH]c3ccccc23)NC1=O`, the IC50 at Serine protease hepsin was 2.8 nM. Also, the remaining at 2 h in data set [1] was 78%; in data set [2] it was 67%. Moreover, the t1/2 in data set [3] was over 4.82 h; in data set [4], 3.82 h.

`CC(=O)N[C@H]1Cc2ccc(cc2)Oc2ccc(cc2)C[C@@H](C(=O)N[C@@H](CCCNC(=N)N)C(=O)c2nc3ccccc3s2)NC(=O)[C@H](CC(C)C)NC1=O`: the Ratio IC50 was 200 in the data set filed under Homo sapiens [12], 144 in the data set filed under Homo sapiens [13] and 6 in the data set listed under Homo sapiens [14]. Moreover, the half-maximal inhibitory concentration (IC50) was 1.2 nM in [5], 250 nM in [10], 180 nM in data set [11] and 7.5 nM at Serine protease hepsin.

For `CC(=O)N[C@H]1Cc2ccc(cc2)OCCCC[C@@H](C(=O)N[C@@H](CCCNC(=N)N)C(=O)c2nc3ccccc3s2)NC(=O)[C@@H](Cc2c[nH]c3ccccc23)NC1=O`, the half-maximal inhibitory concentration (IC50) in data set [5] amounted to 3.7 nM. For the same molecule, the remaining at 2 h in data set [1] amounted to 100%; in data set [2] it was 53%. Besides, the t1/2 in data set [4] came to 1.95 h. In [9], the Stability entry is reported as “Stable”.

For the molecule `CC(=O)N[C@H]1Cc2ccc(cc2)OC/C=C/C[C@@H](C(=O)N[C@@H](CCCNC(=N)N)C(=O)c2nc3ccccc3s2)NC(=O)[C@H](CC(C)C)NC1=O`, the half-inhibitory concentration (IC50) was 1.2 nM in data set [5], 26 nM in [10], 3.4 nM in data set [11] and over 20000 nM in [8]. In addition, the results for the remaining at 2 h in data set [1] and in data set [2] were 86% and 77%, respectively. For the same molecule, the t1/2 in data set [3] and in [4] was over 4.82 h in each case. Moreover, the “beta t1/2” value in data set [15] is under 0.5 h.

As for `CC(=O)N[C@H]1Cc2ccc(cc2)OC/C=C\CNC(=O)C[C@@H](C(=O)N[C@@H](CCCNC(=N)N)C(=O)c2nc3ccccc3s2)NC(=O)[C@H](CC(C)C)NC1=O`, the IC50 in data set [5] was 22 nM; in data set [11], 54 nM; in data set [8], over 20000 nM. Also, the remaining at 2 h was found to be 95% in data set [1] and 81% in [2]. The t1/2 in [3] and in data set [4] was over 4.82 h each time. The Stability result in [9] was “Stable”.
